# Data published in US9505769B2 (ASCENEURON SA, priority 2013, dated 2016).
# Counter-ions that a name gives are not always drawn.
# Target: T1, human muscarinic acetylcholine M1 receptor (Homo sapiens, UniProt P11229)
# T1 construct: expressed in transfected cells; host or cells: CHO-K1
# T1 sequence (P11229 1-460): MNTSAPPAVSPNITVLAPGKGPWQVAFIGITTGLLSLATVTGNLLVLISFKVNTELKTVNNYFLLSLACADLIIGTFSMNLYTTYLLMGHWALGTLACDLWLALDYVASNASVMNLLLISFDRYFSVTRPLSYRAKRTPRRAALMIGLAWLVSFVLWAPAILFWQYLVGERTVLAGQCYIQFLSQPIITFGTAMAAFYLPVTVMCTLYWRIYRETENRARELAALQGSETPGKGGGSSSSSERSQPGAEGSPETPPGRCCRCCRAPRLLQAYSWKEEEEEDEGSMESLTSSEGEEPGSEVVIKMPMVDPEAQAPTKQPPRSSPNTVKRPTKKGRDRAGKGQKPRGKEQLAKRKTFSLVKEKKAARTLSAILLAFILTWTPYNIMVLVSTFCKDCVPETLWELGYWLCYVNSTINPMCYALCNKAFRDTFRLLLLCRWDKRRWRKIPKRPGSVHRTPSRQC
# Test: M1 PAM Assay (IP-One HTRF, IP1 accumulation in M1-CHO cells)
# Format: cell-based
# Conditions: not given
# Method: Then diluted compounds (0.6% DMSO final concentration) are added together with EC20 of acetylcholine and incubated with the cells for 30 min at 37° C., 5% CO2.
# CHO-K1 cells stably transfected with human muscarinic acetylcholine M1 receptor are cultured in Ham's F12 medium containing 10% heat inactivated fetal calf serum, 2 mM L-glutamine and Penicillin-Streptomycin grown in a humidified atmosphere at 5% CO2/95% air at 37° C.
row,Compound,EC50 [µM]
1,"Cc1nc2c3c(nn2c(C)c1Cl)CN(C(=O)c1ccc(F)cc1O[C@H]1C[C@H]2CC[C@@H](C1)N2CCO)C3 [Example 37, (3-chloro-2,4-dimethyl-7H-pyrrolo[3′,4′:3,4]pyrazolo[1,5-a]pyrimidin-8(9H)-yl)(4-fluoro-2-{[(3-endo)-8-(2-hydroxyethyl)-8-azabicyclo[3.2.1]oct-3-yl]oxy}phenyl)methanone]",< 0.2
2,"CC(O)CN1[C@@H]2CC[C@H]1C[C@@H](Oc1cc(F)ccc1C(=O)N1Cc3nn4cc(Cl)cnc4c3C1)C2 (stereo partly drawn) [Example 73, (3-chloro-7H-pyrrolo[3′,4′:3,4]pyrazolo[1,5-a]pyrimidin-8(9H)-yl)(4-fluoro-2-{[(3-endo)-8-(2-hydroxypropyl)-8-azabicyclo[3.2.1]oct-3-yl]oxy}phenyl)methanone]",0.2 to 1
3,"O=C(c1ccc(F)cc1O[C@H]1C[C@H]2CC[C@@H](C1)N2CCF)N1Cc2nn3cc(Cl)cnc3c2C1 (single isomer, unassigned) [Example 51, (3-chloro-7H-pyrrolo[3′,4′:3,4]pyrazolo[1,5-a]pyrimidin-8(9H)-yl)(4-fluoro-2-{[(3-endo)-8-(2-fluoroethyl)-8-azabicyclo[3.2.1]oct-3-yl]oxy}phenyl)methanone]",< 0.2
4,"Cc1nc2c3c(nn2c(C)c1Cl)CN(C(=O)c1ccc(F)cc1OC1CC2C[C@H](O)C(C1)N2C)C3 (mixture of isomers) [Example 39, (3-chloro-2,4-dimethyl-7H-pyrrolo[3′,4′:3,4]pyrazolo[1,5-a]pyrimidin-8(9H)-yl)(4-fluoro-2-(((3-endo)-(6-exo)-6-hydroxy-8-methyl-8-azabicyclo[3.2.1]octan-3-yl)oxy)phenyl)methanone]",< 0.2
5,"CCCN1[C@@H]2CC[C@H]1C[C@@H](Oc1cc(F)ccc1C(=O)N1Cc3nn4cc(Cl)cnc4c3C1)C2 [Example 64, (3-chloro-7H-pyrrolo[3′,4′:3,4]pyrazolo[1,5-a]pyrimidin-8(9H)-yl)(4-fluoro-2-{[(3-endo)-8-propyl-8-azabicyclo[3.2.1]oct-3-yl]oxy}phenyl)methanone]",< 0.2

# Same assay, conditions: CHO-K1 cells stably transfected with human M1 receptor; compounds added with EC20 of acetylcholine (25 nM), 30 min; intracellular IP1 by IP-One HTRF; read-out: M1 PAM EC50
row,EC50 [µM],Compound
1,1 to 3,Cc1nc2c3c(nn2c(C)c1Cl)CN(C(=O)c1ccccc1C(C)N1CCNCC1)C3 (centres unmarked) [Example 6]
2,< 0.2,"Cc1nc2c3c(nn2c(C)c1Cl)CN(C(=O)c1ccc(F)cc1OC[C@H]1CC(F)(F)CN1)C3 [Example 56, (6-Chloro-5,7-dimethyl-1H,3H-2,4,7a,8-tetraaza-cyclopenta[a]inden-2-yl)-[2-((R)-4,4-difluoro-pyrrolidin-2-ylmethoxy)-4-fluoro-phenyl]-methanone]"
3,1 to 3,"Cc1nc2c3c(nn2c(C)c1Cl)CN(C(=O)c1ccc(F)cc1OCCn1ccnc1C)C3 [Example 40, (3-chloro-2,4-dimethyl-7H-pyrrolo[3′,4′:3,4]pyrazolo[1,5-a]pyrimidin-8(9H)-yl)(4-fluoro-2-(2-(2-methyl-1H-imidazol-1-yl)ethoxy)phenyl)methanone]"
4,1 to 3,"Cc1nc2c3c(nn2c(C)c1Cl)CN(C(=O)c1ccc(F)cc1OCCN1CCOCC1)C3 [Example 15, (3-Chloro-2,4-dimethyl-7H-pyrrolo[3′,4′:3,4]pyrazolo[1,5-a]pyrimidin-8(9H)-yl)(4-fluoro-2-(2-morpholinoethoxy)phenyl)methanone]"
5,< 0.2,"Cc1nc2c3c(nn2c(C)c1Cl)CN(C(=O)c1ccc(F)cc1OC1CCN(CCO)CC1)C3 [Example 32, (6-Chloro-5,7-dimethyl-1H,3H-2,4,7a,8-tetraaza-cyclopenta[a]inden-2-yl)-{4-fluoro-2-[1-(2-hydroxy-ethyl)-piperidin-4-yloxy]-phenyl}-methanone]"
6,0.2 to 1,"Cc1nc2c3c(nn2c(C)c1Cl)CN(C(=O)c1ccccc1O[C@H]1CNC[C@@H]1O)C3 (racemic) [Example 4, (anti)-(6-Chloro-5,7-dimethyl-1H,3H-2,4,7a,8-tetraaza-cyclopenta[a]inden-2-yl)-[2-(4-hydroxy-pyrrolidin-3-yloxy)-phenyl]-methanone]"
7,0.2 to 1,O=C(c1ccc(F)cc1OC1CCN(CCF)CC1)N1Cc2nn3cc(Cl)cnc3c2C1 [Example 34]
8,0.2 to 1,"(anti)-(6-Chloro-5-ethyl-7-methyl-1H,3H-2,4,7a,8-tetraaza-cyclopenta[a]inden-2-yl)-[2-(4-hydroxy-pyrrolidin-3-yl oxy)-phenyl]-methanone or (anti)-(6-Chloro-5-methyl-7-ethyl-1H,3H-2,4,7a,8-tetraaza-cyclopenta[a]inden-2-yl)-[2-(4-hydroxy-pyrrolidin-3-yl oxy)-phenyl]-methanone [Example 10]"
9,0.2 to 1,"O=C(c1ccc(F)cc1O[C@H]1C[C@H]2CC[C@@H](C1)N2CC(F)F)N1Cc2nn3cc(Cl)cnc3c2C1 [Example 65, (3-chloro-7H-pyrrolo[3′,4′:3,4]pyrazolo[1,5-a]pyrimidin-8(9H)-yl)(2-{[(3-endo)-8-(2,2-difluoroethyl)-8-azabicyclo[3.2.1]oct-3-yl]oxy}-4-fluorophenyl)methanone]"
10,0.2 to 1,"Cc1nc2c3c(nn2c(C)c1Cl)CN(C(=O)c1ccccc1O[C@H]1CCNC[C@@H]1O)C3 (single isomer, unassigned) [Example 5]"
11,0.2 to 1,"Cc1nc2c3c(nn2c(C)c1Cl)CN(C(=O)c1ccccc1O[C@H]1CCC[C@@H]1O)C3 (racemic) [Example 8, (anti)-(6-Chloro-5,7-dimethyl-1H,3H-2,4,7a,8-tetraaza-cyclopenta[a]inden-2-yl)-[2-(2-hydroxy-cyclopentyloxy)-phenyl]-methanone]"
12,0.2 to 1,"Cc1nc2c3c(nn2c(C)c1Cl)CN(C(=O)c1ccc(F)cc1O[C@H]1CCN(C)C[C@@H]1F)C3 (racemic) [Example 2, (anti)-(3-chloro-2,4-dimethyl-7H-pyrrolo[3′,4′:3,4]pyrazolo[1,5-a]pyrimidin-8(9H)-yl)(4-fluoro-2-((-3-fluoro-1-methylpiperidin-4-yl)oxy)phenyl)methanone]"

# The remaining lines, values behind:
row,Compound,EC50 [µM]
1,"CCc1nc2c3c(nn2c(C)c1Cl)CN(C(=O)c1ccccc1O[C@@H]1CCC[C@H]1O)C3 [Example 9, (anti)-(6-Chloro-5-ethyl-7-methyl-1H,3H-2,4,7a,8-tetraaza-cyclopenta[a]inden-2-yl)-[2-(2-hydroxy-cyclopentyloxy)-phenyl]-methanone or (anti)-(6-Chloro-5-methyl-7-ethyl-1H,3H-2,4,7a,8-tetraaza-cyclopenta[a]inden-2-yl)-[2-(2-hydroxy-cyclopentyloxy)-phenyl]-methanone]",1 to 3
2,"Cc1nc2c3c(nn2c(C)c1Cl)CN(C(=O)c1ccc(F)cc1OC1CCN(C(CO)CO)CC1)C3 [Example 29, (6-Chloro-5,7-dimethyl-1H,3H-2,4,7a8-tetraaza-cyclopenta[a]inden-2-y)-{4-fluoro-2-[1-(2-hydroxy-1-hydroxymethyl-ethyl)-piperidin-4-yloxy]-phenyl}-methanone]",< 0.2
3,"Cc1nc2c3c(nn2c(C)c1Cl)CN(C(=O)c1ccc(F)cc1O[C@@H]1CCN[C@@H](C)C1)C3 (stereo in doubt) [Example 24, (3-chloro-2,4-dimethyl-7H-pyrrolo[3′,4′:3,4]pyrazolo[1,5-a]pyrimidin-8(9H)-yl)(4-fluoro-2-((2-methylpiperidin-4-yl)oxy)phenyl)methanone hydrochloride]",0.2 to 1
4,"Cc1nc2c3c(nn2c(C)c1Cl)CN(C(=O)c1ccncc1OC1CCN(C)CC1)C3 [Example 3, (3-chloro-2,4-dimethyl-7H-pyrrolo[3′,4′:3,4]pyrazolo[1,5-a]pyrimidin-8(9H)-yl)(3-((1-methylpiperidin-4-yl)oxy)pyridin-4-yl)methanone]",1 to 3
5,"Cc1nc2c3c(nn2c(C)c1Cl)C(CO)N(C(=O)c1ccccc1OC1CCN(C)CC1)C3 (centres unmarked) [Example 23, (6-Chloro-1-hydroxymethyl-5,7-dimethyl-1H,3H-2,4,7a,8-tetraaza-cyclopenta[a]inden-2yl)-[2-(1-methyl-piperidin-4-yloxy)-phenyl]-methanone]",1 to 3
6,"Cc1nc2c3c(nn2c(C)c1Cl)CN(C(=O)c1ccc(F)cc1O[C@H]1CN(C)C[C@@H]1O)C3 (racemic) [Example 45, (anti)-(6-Chloro-5,7-dimethyl-1H,3H-2,4,7a,8-tetraaza-cyclopenta[a]inden-2-yl)-[4-fluoro-2-(4-hydroxy-1-methyl-pyrrolidin-3-yloxy)-phenyl]-methanone]",0.2 to 1
7,"Cc1nc2c3c(nn2c(C)c1Cl)CN(C(=O)c1ccc(C#N)cc1OCCN(C)C)C3 [Example 14, 4-(3-chloro-2,4-dimethyl-8,9-dihydro-7H -pyrrolo[3′,4′:3,4]pyrazolo[1,5-a]pyrimidine-8-carbonyl)-3-(2-(dimethylamino)ethoxy)benzonitrile]",0.2 to 1
8,"Cc1nc2c3c(nn2c(C)c1Cl)CN(C(=O)c1ccc(F)cc1OCCc1cncc(F)c1)C3 [Example 43, (3-chloro-2,4-dimethyl-7H-pyrrolo[3′,4′:3,4]pyrazolo[1,5-a]pyrimidin-8(9H)-yl)(4-fluoro-2-(2-(5-fluoropyridin-3-yl)ethoxy)phenyl)methanone]",< 0.2
9,"Cc1nc2c3c(nn2c(C)c1Cl)CN(C(=O)c1ccccc1O[C@H]1COC[C@@H]1O)C3 (racemic) [Example 21, (anti)-(3-chloro-2,4-dimethyl-7H-pyrrolo[3′,4′:3,4]pyrazolo[1,5-a]pyrimidin-8(9H)-yl)(2-((4-hydroxytetrahydrofuran-3-yl)oxy)phenyl)methanone]",1 to 3
